Test results as given in patent US8017612B2, “Piperazine compound and use thereof as a HCV polymerase inhibitor” (priority 2006, dated 2011).
Where a name gives a salt, the structure may show the parent alone.

Assays:
[1] = target: T1, HCV polymerase (NS5B) type 1b (Hepatitis C virus genotype 1b, UniProt P26663); assay: Assay of enzyme (HCV polymerase) inhibitory activity, type 1b enzyme; format: biochemical, HCV BK strain (type 1b)
T1 construct: a region encoding NS5B (J Virol 1991 March, 65(3), 1105-13, 544 amino acids after deletion of 47 amino acids on the C-terminal); 6xHis (C); made in house; host or cells: Escherichia coli
In short: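 IC50 derived from [3H]UTP incorporation into TCA-insoluble RNA, compared with and without test compound. Reaction (25 °C, 60 min, Tris pH 7.5, 5 mM MgCl2): E. coli-expressed 1b NS5B Δ47 with His tag at 0.5 μg/ml, 5 μg/ml run-off substrate RNA, ATP/GTP/CTP 50 μM, UTP 2 μM.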

[2] = target: T2, HCV polymerase (NS5B) type 1a (Hepatitis C virus genotype 1a, UniProt P26664); assay: Assay of enzyme (HCV polymerase) inhibitory activity, type 1a enzyme; format: biochemical, HCV type 1a (cloned from the blood of patients)
T2 construct: made in house; host or cells: Escherichia coli (by the 'similar method' of the 1b enzyme)
In short: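 Reactions ran 60 min at 25° C in 20 mM Tris-HCl pH 7.5, 5 mM MgCl2, 50 mM NaCl, holding genotype 1a NS5B (1.5 μg/ml, Δ47 C-terminus, 6His), substrate RNA 5 μg/ml, UTP 2 μM with tritiated UTP and other NTPs 50 μM. IC50 derived from incorporated radiolabel in filter-trapped RNA relative to uninhibited reaction.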

[3] = HCV polymerase inhibitory activity (IC50), 1b, type 1b enzyme 0.5 μg/ml, 25° C., 60 min
[4] = HCV polymerase inhibitory activity (IC50), 1a, type 1a enzyme 1.5 μg/ml, 25° C., 60 min
[5] = HCV polymerase inhibitory activity IC50, 1b, type 1b enzyme
[6] = HCV polymerase inhibitory activity IC50, 1a, type 1a enzyme

SMILES: CCCc1ccc(CNC(=O)[C@H]2CN(c3cnc(CO)cn3)CCN2S(=O)(=O)c2ccc(CC)cc2)cc1 [Example 478, (R)-4-(4-ethyl-benzenesulfonyl)-5′-hydroxymethyl-3,4,5,6-tetrahydro-2H-[1,2′]bipyrazinyl-3-carboxylic acid 4-propyl-benzylamide]
- IC50 [1, 3]: < 0.1 µM
- IC50 [2, 4]: < 0.1 µM

SMILES: CN(C)c1ccc(CNC(=O)[C@H]2CN(C(=O)Cc3ccncc3)CCN2S(=O)(=O)c2ccc(OC(F)(F)F)cc2)cc1 [Example 410, (R)-4-(2-pyridin-4-yl-acetyl)-1-(4-trifluoromethoxy-benzenesulfonyl)-piperazine-2-carboxylic acid 4-dimethylamino-benzylamide]
- IC50 [1, 3]: 0.1 to 1 µM
- IC50 [2, 4]: < 0.1 µM

SMILES: CC(C)(C)c1ccc(CNC(=O)[C@H]2CN(c3cnc(CO)cn3)CCN2S(=O)(=O)c2ccc(OC(F)(F)F)cc2)cc1 [Example 545, (R)-5′-hydroxymethyl-4-(4-trifluoromethoxy-benzenesulfonyl)-3,4,5,6-tetrahydro-2H-[1,2′]bipyrazinyl-3-carboxylic acid 4-tert-butyl-benzylamide]
- IC50 [1, 3]: < 0.1 µM
- IC50 [2, 4]: < 0.1 µM

SMILES: CCOC(=O)c1ccc2nc(N3CCN(S(=O)(=O)c4ccc(OC(F)(F)F)cc4)[C@@H](C(=O)NCc4ccc(C(F)(F)CC)cc4)C3)cnc2c1 [Example 693, 2-[(R)-3-[4-(1,1-difluoro-propyl)-benzylcarbamoyl]-4-(4-trifluoromethoxy-benzenesulfonyl)-piperazin-1-yl]-quinoxaline-6-carboxylic acid ethyl ester]
- IC50 [1, 5]: 0.1 to 1 µM
- IC50 [2, 6]: > 1 µM

SMILES: COc1ccc(S(=O)(=O)N2CCN(C(C)=O)C[C@@H]2C(=O)NCc2ccc(C(C)C)cc2)cc1Cl [Example 216, (R)-4-acetyl-1-(3-chloro-4-methoxy-benzenesulfonyl)-piperazine-2-carboxylic acid 4-isopropyl-benzylamide]
- IC50 [1, 3]: 0.1 to 1 µM
- IC50 [2, 4]: 0.1 to 1 µM

SMILES: COC(=O)c1sc(N2CCN(S(=O)(=O)c3ccc(C(F)(F)F)cc3)[C@@H](C(=O)NCc3ccc(C(C)C)cc3)C2)nc1C [Example 254, 2-[(R)-3-(4-isopropyl-benzylcarbamoyl)-4-(4-trifluoromethyl-benzenesulfonyl)-piperazin-1-yl]-4-methyl-thiazole-5-carboxylic acid methyl ester]
- IC50 [1, 3]: < 0.1 µM
- IC50 [2, 4]: 0.1 to 1 µM

SMILES: CCC(F)(F)c1ccc(CNC(=O)[C@H]2CN(c3nc4nn[nH]c(=O)c4s3)CCN2S(=O)(=O)c2ccc(OC(F)(F)F)cc2)cc1 [Example 640, (R)-4-(4-oxo-3,4-dihydro-thiazolo[4,5-d][1,2,3]triazin-6-yl)-1-(4-trifluoromethoxy-benzenesulfonyl)-piperazine-2-carboxylic acid 4-(1,1-difluoro-propyl)-benzylamide]
- IC50 [1, 3]: < 0.1 µM
- IC50 [2, 4]: < 0.1 µM

SMILES: CCC(F)(F)c1ccc(CNC(=O)[C@H]2CN(c3nc4nc(Cl)ncc4s3)CCN2S(=O)(=O)c2ccc(C(F)(F)F)cc2)cc1 [Example 902, (R)-4-(5-chloro-thiazolo[4,5-d]pyrimidin-2-yl)-1-(4-trifluoromethyl-benzenesulfonyl)-piperazine-2-carboxylic acid 4-(1,1-difluoro-propyl)-benzylamide]
- IC50 [1, 5]: < 0.1 µM
- IC50 [2, 6]: < 0.1 µM

SMILES: O=C(O)c1cnc(N2CCN(S(=O)(=O)c3ccc(C(F)(F)F)cc3)[C@@H](C(=O)NCc3ccc(OC(F)F)c(F)c3)C2)cn1 [Example 1122]
- IC50 [1, 5]: < 0.1 µM
- IC50 [2, 6]: < 0.1 µM

SMILES: CC(C)c1ccc(CNC(=O)[C@H]2CN(C(=O)Nc3cccc(OCC(=O)O)c3)CCN2S(=O)(=O)c2ccc(C(F)(F)F)cc2)cc1 [Example 260, (3-{[(R)-3-(4-isopropyl-benzylcarbamoyl)-4-(4-trifluoromethyl-benzenesulfonyl)-piperazine-1-carbonyl]-amino}-phenoxy)-acetic acid]
- IC50 [1, 3]: 0.1 to 1 µM
- IC50 [2, 4]: 0.1 to 1 µM

SMILES: CC(=O)N1CCN(S(=O)(=O)c2ccc(C(C)C)cc2)C(C(=O)NCc2ccc(C(=O)O)cc2)C1 (stereo not drawn) [Example 99, 4-({[4-acetyl-1-(4-isopropyl-benzenesulfonyl)-piperazine-2-carbonyl]-amino}-methyl)-benzoic acid]
- IC50 [1, 3]: > 1 µM
- IC50 [2, 4]: > 1 µM

SMILES: COC(=O)CCOc1ccc(S(=O)(=O)N2CCN(C(C)=O)C[C@@H]2C(=O)NCc2ccc(C(C)C)cc2)cc1 [Example 250, 3-{4-[(R)-4-acetyl-2-(4-isopropyl-benzylcarbamoyl)-piperazine-1-sulfonyl]-phenoxy}-propionic acid methyl ester]
- IC50 [1, 3]: 0.1 to 1 µM
- IC50 [2, 4]: 0.1 to 1 µM

SMILES: CC(=O)N1CCN(S(=O)(=O)c2ccc(C(C)C)cc2)[C@@H](C(=O)NCCc2ccncc2)C1 [Example 395, (R)-4-acetyl-1-(4-isopropyl-benzenesulfonyl)-piperazine-2-carboxylic acid (2-pyridin-4-yl-ethyl)-amide]
- IC50 [1, 3]: > 1 µM
- IC50 [2, 4]: > 1 µM

SMILES: CC(=O)NCCC(=O)N1CCN(S(=O)(=O)c2ccc(C(F)(F)F)cc2)[C@@H](C(=O)NCc2ccc(C(C)C)cc2)C1 [Example 188, (R)-4-(3-acetylamino-propionyl)-1-(4-trifluoromethyl-benzenesulfonyl)-piperazine-2-carboxylic acid 4-isopropyl-benzylamide]
- IC50 [1, 3]: 0.1 to 1 µM
- IC50 [2, 4]: 0.1 to 1 µM

SMILES: O=C(NCc1ccc(S(F)(F)(F)(F)F)cc1)[C@H]1CN(c2nc3ncncc3s2)CCN1S(=O)(=O)c1ccc(OC(F)(F)F)cc1 [Example 996, (R)-4-thiazolo[4,5-d]pyrimidin-2-yl-1-(4-trifluoromethoxy-benzenesulfonyl)-piperazine-2-carboxylic acid 4-pentafluorosulfanyl-benzylamide]
- IC50 [1, 5]: < 0.1 µM
- IC50 [2, 6]: < 0.1 µM

SMILES: O=C(NCc1ccc(OC(F)F)cc1)[C@H]1CN(c2nn3c(C(F)(F)F)cc(=O)nc3s2)CCN1S(=O)(=O)c1ccc(C(F)(F)F)cc1 [Example 1068, (R)-4-(7-oxo-5-trifluoromethyl-7H-[1,3,4]thiadiazolo[3,2-a]pyrimidin-2-yl)-1-(4-trifluoromethyl-benzenesulfonyl)-piperazine-2-carboxylic acid 4-difluoromethoxy-benzylamide]
- IC50 [1, 5]: < 0.1 µM
- IC50 [2, 6]: < 0.1 µM

SMILES: CN(C)c1ccc(CNC(=O)[C@H]2CN(C(=O)CN)CCN2S(=O)(=O)c2ccc(C(F)(F)F)cc2)cc1 [Example 262, (R)-4-(2-amino-acetyl)-1-(4-trifluoromethyl-benzenesulfonyl)-piperazine-2-carboxylic acid 4-dimethylamino-benzylamide dihydrochloride]
- IC50 [1, 3]: > 1 µM
- IC50 [2, 4]: > 1 µM

SMILES: CC(=O)N1CCN(S(=O)(=O)c2ccc(I)cc2)C(C(=O)NCc2ccc(N(C)C)cc2)C1 (stereo not drawn) [Example 85, 4-acetyl-1-(4-iodo-benzenesulfonyl)-piperazine-2-carboxylic acid 4-dimethylamino-benzylamide]
- IC50 [1, 3]: > 1 µM
- IC50 [2, 4]: 0.1 to 1 µM

SMILES: O=C(NCc1ccc(-c2ccccc2)cc1)[C@H]1CN(c2cnc3cncnc3n2)CCN1S(=O)(=O)c1ccc(OC(F)(F)F)cc1 [Example 663, (R)-4-pteridin-7-yl-1-(4-trifluoromethoxy-benzenesulfonyl)-piperazine-2-carboxylic acid (biphenyl-4-ylmethyl)-amide]
- IC50 [1, 5]: < 0.1 µM
- IC50 [2, 6]: < 0.1 µM

SMILES: CCCc1ccc(CNC(=O)[C@H]2CN(c3nc4c(s3)CNCC4)CCN2S(=O)(=O)c2ccc(OC(F)(F)F)cc2)cc1 [Example 557, (R)-4-(4,5,6,7-tetrahydro-thiazolo[5,4-c]pyridin-2-yl)-1-(4-trifluoromethoxy-benzenesulfonyl)-piperazine-2-carboxylic acid 4-propyl-benzylamide]
- IC50 [1, 3]: < 0.1 µM
- IC50 [2, 4]: < 0.1 µM

SMILES: O=C(NCc1ccc(OC(F)(F)F)cc1)[C@H]1CN(c2ccc3nccnc3c2)CCN1S(=O)(=O)c1ccc(OC(F)(F)F)cc1 [Example 782, (R)-4-quinoxalin-6-yl-1-(4-trifluoromethoxy-benzenesulfonyl)-piperazine-2-carboxylic acid 4-trifluoromethoxy-benzylamide]
- IC50 [1, 5]: < 0.1 µM
- IC50 [2, 6]: < 0.1 µM

SMILES: Cc1nc(N2CCN(S(=O)(=O)c3ccc(OC(F)(F)F)cc3)[C@@H](C(=O)NCc3ccc(N4CCC4)cc3)C2)sc1C(=O)O [Example 398, 2-[(R)-3-(4-azetidin-1-yl-benzylcarbamoyl)-4-(4-trifluoromethoxy-benzenesulfonyl)-piperazin-1-yl]-4-methyl-thiazole-5-carboxylic acid]
- IC50 [1, 3]: < 0.1 µM
- IC50 [2, 4]: 0.1 to 1 µM

SMILES: CCCc1ccc(CNC(=O)[C@H]2CN(c3cc(C)c(C(=O)OC)nn3)CCN2S(=O)(=O)c2ccc(OC(F)(F)F)cc2)cc1 [Example 486, 4-methyl-6-[(R)-3-(4-propyl-benzylcarbamoyl)-4-(4-trifluoromethoxy-benzenesulfonyl)-piperazin-1-yl]-pyridazine-3-carboxylic acid methyl ester]
- IC50 [1, 3]: < 0.1 µM
- IC50 [2, 4]: < 0.1 µM

SMILES: CC(C)c1ccc(CNC(=O)[C@H]2CN(c3ccc(C(=O)OC(C)(C)C)cn3)CCN2S(=O)(=O)c2ccc(C(F)(F)F)cc2)cc1 [Example 326, 6-[(R)-3-(4-isopropyl-benzylcarbamoyl)-4-(4-trifluoromethyl-benzenesulfonyl)-piperazin-1-yl]-nicotinic acid tert-butyl ester]
- IC50 [1, 3]: 0.1 to 1 µM
- IC50 [2, 4]: 0.1 to 1 µM
